Results: the NIST ThermoML archive (doi:10.1021/je101206u)

Test: xn = mol fraction of the nth substance listed
Details: 101 kPa, Liquid

OCCO [1,2-ethanediol] + CCCCn1cc[n+](C)c1.F[B-](F)(F)F
x2 = 0
Details | mass density [kg/m3] | viscosity [mPa·s]
293.15 K | 1113.45 | 21.44
303.15 K | 1106.45 | 14.33
313.15 K | 1099.38 | 10.01
323.15 K | 1092.24 | 7.121
333.15 K | 1085 | 5.33
343.15 K | 1077.65 | 4.103
353.15 K | 1070.17 | 3.242

CCCCn1cc[n+](C)c1.F[B-](F)(F)F [1-butyl-3-methylimidazolium tetrafluoroborate] + C[S+](C)[O-]
Details | mass density [kg/m3] | viscosity [mPa·s]
293.15 K, x1 = 0.0722 | 1120.91 | 3.514
293.15 K, x1 = 0.1764 | 1142.23 | 6.283
293.15 K, x1 = 0.2145 | 1148.47 | 7.911
293.15 K, x1 = 0.3225 | 1162.89 | 13.46
293.15 K, x1 = 0.4189 | 1172.83 | 20.76
293.15 K, x1 = 0.607 | 1186.94 | 42.17
293.15 K, x1 = 0.6557 | 1188.45 | 48.88
293.15 K, x1 = 0.8283 | 1197.44 | 83.33
293.15 K, x1 = 0.9155 | 1201.03 | 107.2
293.15 K, x1 = 1 | 1204.44 | 136.9
298.15 K, x1 = 0.0722 | 1116.22 | –
298.15 K, x1 = 0.1764 | 1137.84 | –
298.15 K, x1 = 0.2145 | 1144.16 | –
298.15 K, x1 = 0.3225 | 1158.77 | –
298.15 K, x1 = 0.4189 | 1168.84 | –
298.15 K, x1 = 0.607 | 1182.57 | –
298.15 K, x1 = 0.6557 | 1185.38 | –
298.15 K, x1 = 0.8283 | 1193.78 | –
298.15 K, x1 = 0.9155 | 1197.43 | –
298.15 K, x1 = 1 | 1200.89 | –
303.15 K, x1 = 0.0722 | 1111.54 | 2.827
303.15 K, x1 = 0.1764 | 1133.45 | 4.839
303.15 K, x1 = 0.2145 | 1139.87 | 5.968
303.15 K, x1 = 0.3225 | 1154.66 | 9.732
303.15 K, x1 = 0.4189 | 1164.85 | 14.46
303.15 K, x1 = 0.607 | 1179.32 | 27.68
303.15 K, x1 = 0.6557 | 1181 | 31.52
303.15 K, x1 = 0.8283 | 1190.12 | 51.43
303.15 K, x1 = 0.9155 | 1193.83 | 64.87
303.15 K, x1 = 1 | 1197.34 | 81.4
313.15 K, x1 = 0.0722 | 1102.21 | 2.324
313.15 K, x1 = 0.1764 | 1124.71 | 3.845
313.15 K, x1 = 0.2145 | 1131.31 | 4.668
313.15 K, x1 = 0.3225 | 1146.47 | 7.347
313.15 K, x1 = 0.4189 | 1156.91 | 10.58
313.15 K, x1 = 0.607 | 1171.76 | 19.29
313.15 K, x1 = 0.6557 | 1173.63 | 21.66
313.15 K, x1 = 0.8283 | 1182.84 | 33.94
313.15 K, x1 = 0.9155 | 1186.65 | 42.14
313.15 K, x1 = 1 | 1190.27 | 51.79
323.15 K, x1 = 0.0722 | 1092.89 | 1.951
323.15 K, x1 = 0.1764 | 1116.01 | 3.137
323.15 K, x1 = 0.2145 | 1122.79 | 3.767
323.15 K, x1 = 0.3225 | 1138.33 | 5.742
323.15 K, x1 = 0.4189 | 1149.02 | 8.052
323.15 K, x1 = 0.607 | 1164.25 | 14.12
323.15 K, x1 = 0.6557 | 1166.3 | 15.79
323.15 K, x1 = 0.8283 | 1175.62 | 25.01
323.15 K, x1 = 0.9155 | 1179.53 | 29.99
323.15 K, x1 = 1 | 1183.24 | 38.04
333.15 K, x1 = 0.0722 | 1083.58 | 1.668
333.15 K, x1 = 0.1764 | 1107.34 | 2.615
333.15 K, x1 = 0.2145 | 1114.3 | 3.118
333.15 K, x1 = 0.3225 | 1130.22 | 4.618
333.15 K, x1 = 0.4189 | 1141.18 | 6.327
333.15 K, x1 = 0.607 | 1156.79 | 10.69
333.15 K, x1 = 0.6557 | 1158.97 | 11.78
333.15 K, x1 = 0.8283 | 1168.44 | 17.38
333.15 K, x1 = 0.9155 | 1172.45 | 20.96
333.15 K, x1 = 1 | 1176.25 | 24.97
343.15 K, x1 = 0.0722 | 1074.29 | 1.447
343.15 K, x1 = 0.1764 | 1098.7 | 2.222
343.15 K, x1 = 0.2145 | 1105.83 | 2.638
343.15 K, x1 = 0.3225 | 1122.16 | 3.801
343.15 K, x1 = 0.4189 | 1133.38 | 5.104
343.15 K, x1 = 0.607 | 1149.37 | 8.359
343.15 K, x1 = 0.6557 | 1151.6 | 8.977
343.15 K, x1 = 0.8283 | 1161.32 | 13.21
343.15 K, x1 = 0.9155 | 1165.43 | 15.78
343.15 K, x1 = 1 | 1169.32 | 18.49
353.15 K, x1 = 0.0722 | 1064.99 | 1.272
353.15 K, x1 = 0.1764 | 1090.08 | 1.918
353.15 K, x1 = 0.2145 | 1097.39 | 2.278
353.15 K, x1 = 0.3225 | 1114.12 | 3.195
353.15 K, x1 = 0.4189 | 1125.62 | 4.21
353.15 K, x1 = 0.607 | 1141.99 | 6.702
353.15 K, x1 = 0.6557 | 1144.28 | 7.182
353.15 K, x1 = 0.8283 | 1154.24 | 10.34
353.15 K, x1 = 0.9155 | 1158.44 | 12.24
353.15 K, x1 = 1 | 1162.44 | 14.37

CCCCn1cc[n+](C)c1.F[B-](F)(F)F [1-butyl-3-methylimidazolium tetrafluoroborate] + OCCO
Details | mass density [kg/m3] | viscosity [mPa·s]
293.15 K, x1 = 0.0895 | 1133.64 | 19.89
293.15 K, x1 = 0.1758 | 1147.86 | 19.29
293.15 K, x1 = 0.3578 | 1167.8 | 23.44
293.15 K, x1 = 0.4397 | 1174.28 | 23.39
293.15 K, x1 = 0.6482 | 1187.63 | 39.69
293.15 K, x1 = 0.8121 | 1196.19 | 68.29
293.15 K, x1 = 1 | 1204.44 | 136.9
298.15 K, x1 = 0.0895 | 1129.95 | –
298.15 K, x1 = 0.1758 | 1144.07 | –
298.15 K, x1 = 0.3578 | 1163.96 | –
298.15 K, x1 = 0.4397 | 1170.46 | –
298.15 K, x1 = 0.6482 | 1183.91 | –
298.15 K, x1 = 0.8121 | 1192.56 | –
298.15 K, x1 = 1 | 1200.89 | –
303.15 K, x1 = 0.0895 | 1126.26 | 12.66
303.15 K, x1 = 0.1758 | 1140.28 | 12.72
303.15 K, x1 = 0.3578 | 1160.12 | 15.48
303.15 K, x1 = 0.4397 | 1166.64 | 17.5
303.15 K, x1 = 0.6482 | 1180.21 | 26.17
303.15 K, x1 = 0.8121 | 1188.95 | 41.88
303.15 K, x1 = 1 | 1197.34 | 81.4
313.15 K, x1 = 0.0895 | 1118.86 | 8.881
313.15 K, x1 = 0.1758 | 1132.71 | 8.902
313.15 K, x1 = 0.3578 | 1152.49 | 10.87
313.15 K, x1 = 0.4397 | 1159.07 | 12.33
313.15 K, x1 = 0.6482 | 1172.85 | 18.29
313.15 K, x1 = 0.8121 | 1181.74 | 28.17
313.15 K, x1 = 1 | 1190.27 | 51.79
323.15 K, x1 = 0.0895 | 1111.43 | 6.422
323.15 K, x1 = 0.1758 | 1125.13 | 6.528
323.15 K, x1 = 0.3578 | 1144.89 | 8.034
323.15 K, x1 = 0.4397 | 1151.54 | 9.112
323.15 K, x1 = 0.6482 | 1165.56 | 13.41
323.15 K, x1 = 0.8121 | 1174.6 | 20.62
323.15 K, x1 = 1 | 1183.24 | 35.23
333.15 K, x1 = 0.0895 | 1103.95 | 4.88
333.15 K, x1 = 0.1758 | 1117.55 | 4.971
333.15 K, x1 = 0.3578 | 1137.35 | 6.16
333.15 K, x1 = 0.4397 | 1144.07 | 7.005
333.15 K, x1 = 0.6482 | 1158.32 | 10.2
333.15 K, x1 = 0.8121 | 1167.55 | 14.84
333.15 K, x1 = 1 | 1176.25 | 24.97
343.15 K, x1 = 0.0895 | 1096.42 | 3.807
343.15 K, x1 = 0.1758 | 1109.96 | 3.909
343.15 K, x1 = 0.3578 | 1129.84 | 4.87
343.15 K, x1 = 0.4397 | 1136.64 | 5.552
343.15 K, x1 = 0.6482 | 1151.14 | 8.019
343.15 K, x1 = 0.8121 | 1160.56 | 11.41
343.15 K, x1 = 1 | 1169.32 | 18.49
353.15 K, x1 = 0.0895 | 1088.83 | 2.872
353.15 K, x1 = 0.1758 | 1102.35 | 3.163
353.15 K, x1 = 0.3578 | 1122.35 | 3.932
353.15 K, x1 = 0.4397 | 1129.25 | 5.153
353.15 K, x1 = 0.6482 | 1144 | 6.479
353.15 K, x1 = 0.8121 | 1153.54 | 8.692
353.15 K, x1 = 1 | 1162.44 | 14.37

C[S+](C)[O-] [dimethyl sulfoxide] + CCCCn1cc[n+](C)c1.F[B-](F)(F)F
x2 = 0
Details | mass density [kg/m3] | viscosity [mPa·s]
293.15 K | 1100.76 | 2.21
298.15 K | 1095.74 | –
303.15 K | 1090.73 | 1.843
313.15 K | 1080.69 | 1.556
323.15 K | 1070.66 | 1.337
333.15 K | 1060.63 | 1.165
343.15 K | 1050.58 | 1.028
353.15 K | 1040.51 | 0.917
